Assay results reported in the NIST ThermoML archive (doi:10.1016/j.tca.2018.04.002).
Numbers after ± are expanded uncertainties.

What was measured:
[1] = Crystal
[2] = Molar enthalpy of transition or fusion; conditions: Crystal; DSC

thermal conductivity ([1]; 296.15 K, 101.33 kPa, Hot disk method): 0.394 ± 0.081 W/m/K
Triple point temperature ([1]; DSC): 320.35 ± 4.1 K
Molar enthalpy of transition or fusion [2]: 10.4 ± 2.08 kcal/mol
Structure (SMILES): CCCCCCCCCCCC(=O)O [dodecanoic acid]
